Data published in patent US20040225019A1, “Methods of preventing or treating motion sickness” (priority 2003, published 2004).
“Also recorded” adds a separate entry of the source.

What was measured:
[1] = test system: motion sickness; test: Off-vertical rotation chair motion sickness test; format: in vivo, human; details: for Mean Time (chair time): ride 3 h after drug, placebo 7.2; for Mean Time (chair time) / Mean Motion Sickness Severity Score: n = 18; for Mean Motion Sickness Severity Score: end of chair ride, placebo 18.2
Text: Motion sickness was simulated by rotation in a tilted chair, also known as off-vertical rotation (Knox, et al. (1994) Laryngoscope 104(8 Pt 1):935-9; Woodard, et al. (1993) Aviat. Space Environ. Med. 64(5):363-6; Mowrey and Clayson (1982) Lancet 1(8273):655-7; Graybiel and Miller (1970) Aero. Med. 41(4):407-10). Off-vertical rotation produces motion sickness symptoms in more than 90% of subjects tested and has a high test-retest reliability. No provocative head motions are required which minimizes subject fatigue and training. For each run, the chair was tilted to 15 degrees off vertical, and accelerated at 5 degrees/sec^2 to 17.5 revolutions per minute. […] The subject was restrained with a seat belt and shoulder harness. The subject's head was also secured to the headrest with a strap to prevent head movements. Opaque goggles were placed over the subject's eyes.
The degree of motion sickness was assessed in three different ways. For the first method, the subjects were instructed how to use a well-known ratio scaling method (Bock and Oman (1982) Aviat. Space Environ. Med. 53(8):773-7) and were given a familiarization run in the chair to experience the motion sickness symptoms. The subjects were instructed to rate the peak overall discomfort they experienced in the familiarization ride as a “10” and to remember this level. They were instructed to rate all other levels of discomfort relative to this level. For example, discomfort which was half as severe would be rated as a “5”. This method is similar other well-known methods (see, e.g., Stott, et al. (1989) Br. J. Clin. Pharma. 27(2):147-57).
The second method was symptom recording. Prior to the familiarization run the subjects were instructed about the different symptoms that might occur (drowsiness, epigastric awareness, and the like). The subjects were asked about these symptoms each minute during the rotation and logged on a scoring sheet (Miller and Graybiel (1970) Aero. Med. 41(4):407-10), which was a variant of the Pensacola Diagnostic Rating Scale. The symptoms were assigned points and from these points, five levels of severity were determined (frank sickness, severe malaise, moderate malaise A, moderate malaise B, slight malaise).
The third method used to assess motion sickness was to record the total number of minutes the subject rides in the chair before stopping (Woodard, et al. (1993) supra; Mowrey and Clayson (1982) supra).
The studies employed a double-blind, placebo controlled, crossover design. […] The placebo was a single lactose capsule. […] The medications were labeled only with the subject's name, identification number and sequence of administration (i.e., Run 1, Run 2, Run 3). […] Both the research team and subjects were unaware of the order of administration.
Prior to the ride, subjects received a briefing on the symptoms they might experience, how to report those symptoms and instructions on when to stop the test. After the familiarization ride the subjects were instructed to remember their peak overall discomfort as a “10” and to rate all future symptoms relative to that baseline.
The subjects rode in the chair once for each treatment (low dose, high dose, and placebo) with at least one week between rides. A one week interval between rides is sufficient to prevent habituation to the rotating stimulus (Kohl (1987) Aviat. Space Environ. Med. 58(2):125-31; Stott, et al (1989) supra).
Test medications were taken two hours after finishing breakfast. […] On the study day, the subjects came to the lab, performed the cognitive testing battery and were observed taking the test medication. The time of drug ingestion was documented and the subjects returned three hours after taking the medication to complete the cognitive testing battery and ride in the chair. Prior to entering the chair, subjects received a standardized test briefing. Every minute during the testing, subjects were quizzed for motion sickness symptoms and asked to rate their own symptoms on a ratio scale. […]

[2] = Cognitive assessment battery before and after drug and chair ride; format: in vivo, human; details: for Mean Reaction Time: n = 15
Text: Test medications were taken two hours after finishing breakfast. […] On the study day, the subjects came to the lab, performed the cognitive testing battery and were observed taking the test medication. The time of drug ingestion was documented and the subjects returned three hours after taking the medication to complete the cognitive testing battery and ride in the chair. Prior to entering the chair, subjects received a standardized test briefing. Every minute during the testing, subjects were quizzed for motion sickness symptoms and asked to rate their own symptoms on a ratio scale. Testing continued until either 20 minutes elapsed, the subject requested testing stop, or severe nausea or vomiting was experienced (i.e., the subject reached a subjective 10 on their scale). Blood pressure, respiratory rate and pulse were measured before and after the chair ride using a Critikon DINAMAP® 1846-SX device.
A standard cognitive assessment battery (Dinges, et al. (1997) Sleep 20(4):267-7; Neri, et al. (1995) Aviat. Space Environ. Med 66(4):313-9; Richardson, et al. (1996) Sleep 19(9):718-26) used in studies of sleep deprivation (Jewett, et al. (1999) Sleep 22(2):171-9) was used which included both objective and subjective measures of performance and wakefulness. The overall battery takes 20 minutes to administer and has been used successfully on the Neurolab space shuttle mission to assess how sleep loss affected crewmembers.
The cognitive tests were performed three times for each chair ride. The first test served as a baseline, the second test was administered at the peak of drug effect and the last test was after the chair ride. In this design, the results of the second test reflect changes due to drug effect, while the results from the third test reflect a combination of drug effect and motion sickness effects.

[3] = Questionnaire about side effects after chair ride

CN(C)CCC(c1ccc(Cl)cc1)c1ccccn1 (racemic) [chlorpheniramine]
Mean Time (chair time) ([1]; High Dose 12 mg chlorpheniramine capsule): 11.7 min | Mean Motion Sickness Severity Score ([1]; High Dose 12 mg): 12.4 | Motion sickness severity score at end of chair ride (significance) ([1]; High dose 12 mg versus placebo (p=0.0004) and low dose (p=0.01)): significantly less | Increase of mean chair time versus placebo ([1]; High dose 12 mg, 7.2 to 11.7 minutes): 63% | Effect on chair time versus placebo (significance) ([1]; High dose 12 mg, p=0.001): significantly increased chair time | Mean Time (chair time) ([1]; Low Dose 4 mg chlorpheniramine capsule): 10.2 min | Mean Motion Sickness Severity Score ([1]; Low Dose 4 mg): 16.4 | Subjects who increased chair time to the maximum (20 minutes) ([1]; of 18 subjects, rides stopped at 20 minutes): Three | Performance in objective tests of addition, tracking and memory ([2]; 4 mg and 12 mg doses): does not affect performance; also recorded: not significantly affected | Mean Reaction Time ([2]; High Dose 12 mg, PostDrug): 281.5 ms | Mean Reaction Time ([2]; High Dose 12 mg, PostRide): 298.4 ms | Mean Reaction Time ([2]; High Dose 12 mg, PreDrug (baseline before drug)): 265.1 ms | Karolinska sleepiness scores ([2]; High dose 12 mg, after chair rides, p<0.0001): higher sleepiness scores | Reaction time (significance) ([2]; High dose 12 mg, after the chair rides, p=0.0002): significantly increased | Scores on the alert-sleepy mood scale ([2]; High dose 12 mg, p<0.0001): significantly changed toward the sleepy portion of the scale | Scores on the clearheaded-groggy mood scale ([2]; High dose 12 mg, p<0.0001): significantly changed toward the groggy portion of the scale | Mean Reaction Time ([2]; Low Dose 4 mg, PostDrug): 286.1 ms | Mean Reaction Time ([2]; Low Dose 4 mg, PostRide): 295.2 ms | Mean Reaction Time ([2]; Low Dose 4 mg, PreDrug (baseline before drug)): 271.2 ms | Most commonly reported toxicities ([3]; after chair rides, 18 subjects): drowsiness and dry mouth | Tendency to report a side effect with drug versus placebo ([3]; chi-square analysis): did not reach statistical significance
